What was measured:
Format in all cases: cell-based
[1] = test system: PACA-2; assay: MTS cell kill, PACA-2
Description: (§1) Cells were maintained at 37° C., 5% CO2 in DMEM media supplemented with 1% fetal bovine serum, penicillin/streptomycin and fungizone (Invitrogen). Cells were seeded into 96-well tissue culture plates at 3000 per well and cultured at 37° C. for 18 hours. Test compounds were dissolved and diluted to 300× in DMSO then diluted 1:40 in DMEM.

[2] = test system: MDA-MB-231; assay: MTS cell kill, MDA-MB-231
Description: as §1

[3] = test system: NCI-H1299; assay: MTS cell kill, NCI-H1299
Description: as §1

[4] = test system: KATO III; assay: MTS assay, KATO III
Description: as §1

[5] = test system: PC-3; assay: MTS cell kill, PC-3
Description: as §1

[6] = test system: DLD-1; assay: MTS cell kill, DLD-1
Description: as §1
Note: test concentration or dose not given here.

Compound	MTS cell kill data (% inhibition) PACA-2 [1]	MTS cell kill data (% inhibition) MDA-MB-231 [2]	MTS cell kill data (% inhibition) NCI-H1299 [3]	MTS cell kill data (% inhibition) KATO III [4]	MTS cell kill data (% inhibition) PC-3 [5]	MTS cell kill data (% inhibition) DLD-1 [6]
COc1ccc(OC)c(CC(=O)Nc2ccc(C3Cc4cnc(NCCCCN(C)C)nc4-c4ccccc43)cc2)c1 (stereo not drawn) [Example 473]	A (A = 80-100% inhibition)	A (A = 80-100% inhibition)	A (A = 80-100% inhibition)	A (A = 80-100% inhibition)	A (A = 80-100% inhibition)	A (A = 80-100% inhibition)
CNc1ncc2c(n1)-c1ccccc1C1(CCN(C(=O)Nc3ccc(Oc4ccccc4)cc3)CC1)C2 [Example 406, 2-(methylamino)-N-(4-phenoxyphenyl)-1′H,5H-spiro[benzo[h]quinazoline-6,4′-piperidine]-1′-carboxamide]	A (A = 80-100% inhibition)	A (A = 80-100% inhibition)	A (A = 80-100% inhibition)	A (A = 80-100% inhibition)	–	A (A = 80-100% inhibition)
CN1CCN(CCCNc2ncc3c(n2)-c2ccccc2C(c2ccc(NCc4ccc5c(c4)CCO5)cc2)C3)CC1 (stereo not drawn) [Example 572, 6-{4-[(2,3-dihydro-1-benzofuran-5-ylmethyl)amino]phenyl}-N-[3-(4-methylpiperazin-1-yl)propyl]-5,6-dihydrobenzo[h]quinazolin-2-amine]	A (A = 80-100% inhibition)	A (A = 80-100% inhibition)	A (A = 80-100% inhibition)	A (A = 80-100% inhibition)	–	A (A = 80-100% inhibition)
CN(C)CCCCNc1ncc2c(n1)-c1ccccc1C(c1ccc(NC(=O)c3ccccc3Br)cc1)C2 (stereo not drawn) [Example 466, 2-bromo-N-[4-(2-{[4-(dimethylamino)butyl]amino}-5,6-dihydrobenzo[h]quinazolin-6-yl)phenyl]benzamide]	A (A = 80-100% inhibition)	B (B = 50-79% inhibition)	A (A = 80-100% inhibition)	A (A = 80-100% inhibition)	B (B = 50-79% inhibition)	A (A = 80-100% inhibition)
COc1ccc(C(=O)Nc2ccc(C3Cc4cnc(NCCCCN(C)C)nc4-c4ccccc43)cc2)cc1F (stereo not drawn) [Example 474, N-[4-(2-{[4-(dimethylamino)butyl]amino}-5,6-dihydrobenzo[h]quinazolin-6-yl)phenyl]-3-fluoro-4-methoxybenzamide]	A (A = 80-100% inhibition)	B (B = 50-79% inhibition)	A (A = 80-100% inhibition)	A (A = 80-100% inhibition)	A (A = 80-100% inhibition)	A (A = 80-100% inhibition)
N#Cc1cccc(NC(=O)N2CCC3(CC2)Cc2cnc(Nc4ccc(CO)cc4)nc2-c2ccccc23)c1 [Example 414, N-(3-cyanophenyl)-2-{[4-(hydroxymethyl)phenyl]amino}-1′H,5H-spiro[benzo[h]quinazoline-6,4′-piperidine]-1′-carboxamide]	A (A = 80-100% inhibition)	B (B = 50-79% inhibition)	B (B = 50-79% inhibition)	A (A = 80-100% inhibition)	–	B (B = 50-79% inhibition)
Cc1ccc(F)c(CNc2ccc(C3Cc4cnc(NCCCN5CCN(C)CC5)nc4-c4ccccc43)cc2)c1 (stereo not drawn) [Example 570, 6-{4-[(2-fluoro-5-methylbenzyl)amino]phenyl}-N-[3-(4-methylpiperazin-1-yl)propyl]-5,6-dihydrobenzo[h]quinazolin-2-amine]	A (A = 80-100% inhibition)	A (A = 80-100% inhibition)	A (A = 80-100% inhibition)	A (A = 80-100% inhibition)	–	A (A = 80-100% inhibition)
Cc1ccc(CNc2ccc(C3Cc4cnc(NCCCN5CCN(C)CC5)nc4-c4ccccc43)cc2)c(C)c1 (stereo not drawn) [Example 571, 6-{4-[(2,4-dimethylbenzyl)amino]phenyl}-N-[3-(4-methylpiperazin-1-yl)propyl]-5,6-dihydrobenzo[h]quinazolin-2-amine]	A (A = 80-100% inhibition)	A (A = 80-100% inhibition)	A (A = 80-100% inhibition)	A (A = 80-100% inhibition)	–	A (A = 80-100% inhibition)
CN1CCN(CCCNc2ncc3c(n2)-c2ccccc2C(c2ccc(NCc4cccc5cc[nH]c45)cc2)C3)CC1 (stereo not drawn) [Example 573, 6-{4-[(1H-indol-7-ylmethyl)amino]phenyl}-N-[3-(4-methylpiperazin-1-yl)propyl]-5,6-dihydrobenzo[h]quinazolin-2-amine]	A (A = 80-100% inhibition)	A (A = 80-100% inhibition)	A (A = 80-100% inhibition)	A (A = 80-100% inhibition)	–	A (A = 80-100% inhibition)
N#Cc1cccc(NC(=O)N2CCC3(CC2)Cc2cnc(Nc4ccc(CCO)cc4)nc2-c2ccccc23)c1 [Example 413, N-(3-cyanophenyl)-2-{[4-(2-hydroxyethyl)phenyl]amino}-1′H,5H-spiro[benzo[h]quinazoline-6,4′-piperidine]-1′-carboxamide]	A (A = 80-100% inhibition)	A (A = 80-100% inhibition)	B (B = 50-79% inhibition)	A (A = 80-100% inhibition)	–	A (A = 80-100% inhibition)
CCCc1ccc(CNc2ccc(C3Cc4cnc(NCCCN5CCN(C)CC5)nc4-c4ccccc43)cc2)cc1 (stereo not drawn) [Example 569, N-[3-(4-methylpiperazin-1-yl)propyl]-6-{4-[(4-propylbenzyl)amino]phenyl}-5,6-dihydrobenzo[h]quinazolin-2-amine]	A (A = 80-100% inhibition)	A (A = 80-100% inhibition)	A (A = 80-100% inhibition)	A (A = 80-100% inhibition)	–	A (A = 80-100% inhibition)
N#Cc1cccc(NC(=O)N2CCC3(CC2)Cc2cnc(Nc4ccc(N5CCNCC5)cc4)nc2-c2ccccc23)c1 [Example 412, N-(3-cyanophenyl)-2-[(4-piperazin-1-ylphenyl)amino]-1′H,5H-spiro[benzo[h]quinazoline-6,4′-piperidine]-1′-carboxamide]	A (A = 80-100% inhibition)	A (A = 80-100% inhibition)	A (A = 80-100% inhibition)	A (A = 80-100% inhibition)	–	A (A = 80-100% inhibition)
CN1CCN(CCCNc2ncc3c(n2)-c2ccccc2C(c2ccc(NCc4ccccc4F)cc2)C3)CC1 (stereo not drawn) [Example 574, 6-{4-[(2-fluorobenzyl)amino]phenyl}-N-[3-(4-methylpiperazin-1-yl)propyl]-5,6-dihydrobenzo[h]quinazolin-2-amine]	A (A = 80-100% inhibition)	A (A = 80-100% inhibition)	A (A = 80-100% inhibition)	A (A = 80-100% inhibition)	–	A (A = 80-100% inhibition)
CNc1ncc2c(n1)-c1ccccc1C1(CCN(C(=O)Nc3ccc(C#N)cc3)CC1)C2 [Example 397, N-(4-cyanophenyl)-2-(methylamino)-1′H,5H-spiro[benzo[h]quinazoline-6,4′-piperidine]-1′-carboxamide]	A (A = 80-100% inhibition)	B (B = 50-79% inhibition)	C (C = <50% inhibition)	A (A = 80-100% inhibition)	–	B (B = 50-79% inhibition)
CNc1ncc2c(n1)-c1ccccc1C1(CCN(C(=O)Nc3cccc(Cl)c3)CC1)C2 [Example 408, N-(3-chlorophenyl)-2-(methylamino)-1′H,5H-spiro[benzo[h]quinazoline-6,4′-piperidine]-1′-carboxamide]	A (A = 80-100% inhibition)	C (C = <50% inhibition)	C (C = <50% inhibition)	A (A = 80-100% inhibition)	–	A (A = 80-100% inhibition)
